Assay results from patent US20120115871A1, “METHOD OF TREATMENT OF DEPRESSION” (Supemus Pharmaceuticals, Inc, priority 2009, published 2012).

Columns and labels:
[1] = background statement; cited from earlier work
5-HT1D = 5-HT1D (Rattus norvegicus, UniProt P28565); assay: biochemical; conditions: read-out: % Inhib.
Description: (§1) Briefly, recombinant 5-HT7 receptors were expressed in a CHO cell line. The receptors were then saturated with a tritiated receptor-specific ligand at concentrations known to be saturating.

5-HT3 (h) = 5-HT3 (h) (Homo sapiens, UniProt P46098); assay: biochemical; conditions: read-out: % Inhib.
Sequence of 5-HT3 (h) (P46098 24-478): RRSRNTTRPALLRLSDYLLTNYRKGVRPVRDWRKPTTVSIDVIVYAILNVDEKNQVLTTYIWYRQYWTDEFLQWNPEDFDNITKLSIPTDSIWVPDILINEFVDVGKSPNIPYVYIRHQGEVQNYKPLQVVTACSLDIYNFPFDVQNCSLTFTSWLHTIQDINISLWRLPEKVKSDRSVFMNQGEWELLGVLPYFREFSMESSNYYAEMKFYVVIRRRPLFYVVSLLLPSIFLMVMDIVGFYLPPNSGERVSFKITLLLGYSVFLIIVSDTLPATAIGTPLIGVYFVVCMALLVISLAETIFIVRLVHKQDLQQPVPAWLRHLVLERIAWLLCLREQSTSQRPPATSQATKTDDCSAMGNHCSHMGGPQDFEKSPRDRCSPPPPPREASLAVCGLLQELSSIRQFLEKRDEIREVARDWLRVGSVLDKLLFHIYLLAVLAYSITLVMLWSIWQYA
Description: as §1

5-HT4e (h) = 5-HT4e (h) (Homo sapiens, UniProt Q13639); assay: biochemical; conditions: read-out: % Inhib.
Sequence of 5-HT4e (h) (Q13639 1-378 isoform Q13639-5): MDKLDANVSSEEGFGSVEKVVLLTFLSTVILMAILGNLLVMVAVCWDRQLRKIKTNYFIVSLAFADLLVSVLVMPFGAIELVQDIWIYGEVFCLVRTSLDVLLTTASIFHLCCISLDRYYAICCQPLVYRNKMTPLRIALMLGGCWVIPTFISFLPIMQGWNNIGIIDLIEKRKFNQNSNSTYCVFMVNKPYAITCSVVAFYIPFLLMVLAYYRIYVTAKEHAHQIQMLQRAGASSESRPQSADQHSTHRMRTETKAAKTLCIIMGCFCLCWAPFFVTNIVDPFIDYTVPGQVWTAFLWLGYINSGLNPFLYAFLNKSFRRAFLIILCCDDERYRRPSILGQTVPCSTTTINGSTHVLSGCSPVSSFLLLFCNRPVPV
Description: as §1

5-HT5A (h) = 5-HT5A (h) (Homo sapiens, UniProt P47898); assay: biochemical; conditions: read-out: % Inhib.
Sequence of 5-HT5A (h) (P47898 whole entry): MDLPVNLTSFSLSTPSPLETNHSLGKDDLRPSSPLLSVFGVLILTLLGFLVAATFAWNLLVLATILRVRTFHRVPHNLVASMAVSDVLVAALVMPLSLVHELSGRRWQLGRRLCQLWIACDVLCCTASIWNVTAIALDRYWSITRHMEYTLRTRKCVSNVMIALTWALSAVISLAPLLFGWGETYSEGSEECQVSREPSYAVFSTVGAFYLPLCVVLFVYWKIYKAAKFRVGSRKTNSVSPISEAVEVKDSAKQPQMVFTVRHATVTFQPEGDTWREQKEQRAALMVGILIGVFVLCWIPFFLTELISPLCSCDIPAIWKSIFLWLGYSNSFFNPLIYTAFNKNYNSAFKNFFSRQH
Description: as §1

5-HT6 (h) = 5-HT6 (h) (Homo sapiens, UniProt P50406); assay: biochemical; conditions: read-out: % Inhib.
Sequence of 5-HT6 (h) (P50406 whole entry): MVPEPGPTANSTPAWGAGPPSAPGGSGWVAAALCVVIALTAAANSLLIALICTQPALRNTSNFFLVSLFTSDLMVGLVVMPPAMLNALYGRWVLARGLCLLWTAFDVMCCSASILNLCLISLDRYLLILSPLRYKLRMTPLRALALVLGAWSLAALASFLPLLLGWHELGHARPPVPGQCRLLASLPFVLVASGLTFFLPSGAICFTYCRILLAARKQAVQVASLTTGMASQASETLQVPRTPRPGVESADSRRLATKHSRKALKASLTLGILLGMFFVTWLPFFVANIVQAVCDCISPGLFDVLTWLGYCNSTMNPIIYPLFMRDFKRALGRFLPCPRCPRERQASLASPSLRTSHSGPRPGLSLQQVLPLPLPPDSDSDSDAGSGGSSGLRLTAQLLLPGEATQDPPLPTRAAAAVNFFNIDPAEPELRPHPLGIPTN
Description: as §1

5-HT7 (h) = 5-HT7 (h) (Homo sapiens, UniProt P34969); conditions: range of concentrations; FIG. 2
Sequence of 5-HT7 (h) (P34969 whole entry): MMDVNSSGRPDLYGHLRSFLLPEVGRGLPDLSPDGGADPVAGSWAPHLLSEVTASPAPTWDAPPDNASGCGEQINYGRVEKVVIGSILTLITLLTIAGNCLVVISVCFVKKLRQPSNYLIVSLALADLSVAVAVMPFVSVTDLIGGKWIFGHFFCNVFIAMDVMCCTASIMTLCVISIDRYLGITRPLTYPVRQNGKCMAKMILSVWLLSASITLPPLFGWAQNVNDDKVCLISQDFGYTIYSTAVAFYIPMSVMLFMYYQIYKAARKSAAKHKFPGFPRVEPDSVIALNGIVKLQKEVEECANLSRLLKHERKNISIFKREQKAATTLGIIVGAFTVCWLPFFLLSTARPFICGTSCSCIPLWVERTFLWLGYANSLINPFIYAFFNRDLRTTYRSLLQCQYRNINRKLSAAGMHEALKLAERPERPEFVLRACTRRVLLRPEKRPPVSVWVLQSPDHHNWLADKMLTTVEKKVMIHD
Protocol: The apparent dissociation constants for antagonists Kb were calculated using the modified Cheng Prusoff equation.

[2] = molecular target: noradrenergic reuptake transporters (Homo sapiens, UniProt P23975); conditions: Tatsumi et al [1997]; cited from earlier work
Sequence of noradrenergic reuptake transporters (P23975 whole entry): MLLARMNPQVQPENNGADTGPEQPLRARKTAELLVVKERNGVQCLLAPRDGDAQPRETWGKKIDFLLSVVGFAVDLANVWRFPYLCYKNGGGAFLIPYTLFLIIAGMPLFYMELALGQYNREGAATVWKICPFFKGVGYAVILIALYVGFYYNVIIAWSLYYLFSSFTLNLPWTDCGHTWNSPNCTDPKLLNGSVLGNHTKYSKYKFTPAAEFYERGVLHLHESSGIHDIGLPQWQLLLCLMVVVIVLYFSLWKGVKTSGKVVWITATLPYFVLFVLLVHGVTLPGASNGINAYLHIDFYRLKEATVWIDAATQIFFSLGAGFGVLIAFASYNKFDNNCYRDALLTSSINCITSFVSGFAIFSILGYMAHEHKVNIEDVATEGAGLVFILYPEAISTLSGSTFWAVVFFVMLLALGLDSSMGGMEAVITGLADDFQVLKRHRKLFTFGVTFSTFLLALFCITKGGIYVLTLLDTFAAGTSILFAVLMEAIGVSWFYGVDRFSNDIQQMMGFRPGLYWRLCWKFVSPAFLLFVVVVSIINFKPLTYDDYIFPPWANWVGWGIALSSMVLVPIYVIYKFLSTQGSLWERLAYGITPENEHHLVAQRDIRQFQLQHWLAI

[3] = molecular target: serotonin reuptake inhibitor (Homo sapiens, UniProt P31645); conditions: very weak activity; Tatsumi et al [1997]; cited from earlier work
Sequence of serotonin reuptake inhibitor (P31645 whole entry): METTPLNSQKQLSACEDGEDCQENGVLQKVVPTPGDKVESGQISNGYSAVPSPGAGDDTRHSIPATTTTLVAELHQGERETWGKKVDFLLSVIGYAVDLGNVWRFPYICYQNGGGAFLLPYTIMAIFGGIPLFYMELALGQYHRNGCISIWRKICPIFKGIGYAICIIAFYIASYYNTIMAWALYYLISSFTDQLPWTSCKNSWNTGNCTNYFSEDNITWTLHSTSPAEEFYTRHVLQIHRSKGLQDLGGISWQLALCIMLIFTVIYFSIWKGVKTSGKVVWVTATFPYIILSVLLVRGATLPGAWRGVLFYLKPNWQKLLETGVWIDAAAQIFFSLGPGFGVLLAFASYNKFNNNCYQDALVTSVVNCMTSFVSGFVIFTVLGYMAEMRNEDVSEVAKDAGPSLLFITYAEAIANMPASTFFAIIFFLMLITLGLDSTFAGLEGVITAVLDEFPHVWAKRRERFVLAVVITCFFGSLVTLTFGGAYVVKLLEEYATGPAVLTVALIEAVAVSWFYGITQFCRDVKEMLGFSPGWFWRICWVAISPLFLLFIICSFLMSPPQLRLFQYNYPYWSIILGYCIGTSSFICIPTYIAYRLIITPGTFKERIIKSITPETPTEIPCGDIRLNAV

Sequence of 5-HT1D (P28565 whole entry): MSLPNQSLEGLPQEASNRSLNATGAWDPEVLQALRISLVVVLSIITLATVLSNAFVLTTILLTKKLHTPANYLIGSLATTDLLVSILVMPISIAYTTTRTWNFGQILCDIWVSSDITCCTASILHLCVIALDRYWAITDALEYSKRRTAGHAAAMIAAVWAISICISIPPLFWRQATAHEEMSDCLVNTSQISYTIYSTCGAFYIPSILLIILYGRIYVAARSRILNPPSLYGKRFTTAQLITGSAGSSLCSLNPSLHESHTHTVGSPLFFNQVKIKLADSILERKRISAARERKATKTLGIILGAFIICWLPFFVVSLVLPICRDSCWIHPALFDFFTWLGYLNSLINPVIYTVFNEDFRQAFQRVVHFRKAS

Q: For `CCOc1ccccc1OC[C@@H]1CNCCO1` (single isomer, unassigned) [S(−)-isomer], which “pharmacological activity relative to R(+)-isomer” value [1] is on record?
A: five times more pharmacologically active than the R(+)-isomer

Q: With `CCOc1ccccc1OCC1CNCCO1` (racemic) [viloxazine, Viloxazine] as the compound, how does the inhibition at 0.001 µM (5-HT1D) read?
A: 18%

Q: What about the inhibition at 0.0005 µM (5-HT3 (h)) of the same compound?
A: 18%

Q: What about the inhibition at 0.0003 µM (5-HT4e (h)) of the same compound?
A: 16%

Q: What about the inhibition at 0.001 µM (5-HT5A (h)) of the same compound?
A: 15%

Q: What about the inhibition at 0.002 µM (5-HT6 (h)) of the same compound?
A: 6%

Q: What about the “agonist effect (cAMP response)” value (5-HT7 (h)) of the same compound?
A: no measurable response

Q: And the “inhibition of noradrenergic reuptake transporters” value [2]?
A: 155 nM

Q: And the “activity at the serotonin reuptake inhibitor” value [3]?
A: 17.3 μm
